# Measurements reported in PMC11040665, “Aminothiazolone Inhibitors Disrupt the Protein–RNA Interaction of METTL16 and Modulate the m^6A RNA Modification” (JACS Au, 2024).
# Entries after “also recorded” stand apart in the source; their conditions may differ.
# T1: methyltransferase activity of METTL16 MTD toward MAT2A-hp1 (Homo sapiens, UniProt Q86W50)
# T1 construct: METTL16 MTD (1–291) was subcloned to pOPINB plasmid; His tag followed by HRV 3C cleavage site (N, cleaved yes); made in house; host or cells: E. coli Rosetta (DE3)
# T1 sequence (Q86W50 1-291): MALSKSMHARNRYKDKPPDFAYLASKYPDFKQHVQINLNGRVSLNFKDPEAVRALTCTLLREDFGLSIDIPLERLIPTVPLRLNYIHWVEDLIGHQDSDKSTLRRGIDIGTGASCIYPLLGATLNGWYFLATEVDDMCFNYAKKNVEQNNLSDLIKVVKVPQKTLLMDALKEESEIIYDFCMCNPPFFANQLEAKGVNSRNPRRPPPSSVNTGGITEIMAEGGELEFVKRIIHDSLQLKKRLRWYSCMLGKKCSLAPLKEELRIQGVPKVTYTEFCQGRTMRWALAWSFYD
# T2: METTL16 MTD–U6 snRNA Δ interaction (Homo sapiens, UniProt Q86W50)
# T2 construct: METTL16 MTD (1–291) was subcloned to pOPINB plasmid; His tag followed by HRV 3C cleavage site (N, cleaved yes); made in house; host or cells: E. coli Rosetta (DE3)
# T2 sequence (Q86W50 1-291): T1 sequence (Q86W50 1-291)
# T3: METTL16 MTD–GGACU-containing RNA interaction (Homo sapiens, UniProt Q86W50)
# T3 sequence (Q86W50 1-291): T1 sequence (Q86W50 1-291)
# T4: METTL16–MAT2A-hp1 mRNA interaction (METTL16 MTD 1–291, FAM-labeled MAT2A-hp1 RNA) (Homo sapiens, UniProt Q86W50)
# T4 sequence (Q86W50 1-291): T1 sequence (Q86W50 1-291)
# T5: METTL16 (1-291) (Homo sapiens, UniProt Q86W50)
# T5 construct: METTL16 MTD (1–291) was subcloned to pOPINB plasmid; His tag followed by HRV 3C cleavage site (N, cleaved yes); made in house; host or cells: E. coli Rosetta (DE3)
# T5 sequence (Q86W50 1-291): T1 sequence (Q86W50 1-291)
# T6: METTL16 (1-291)–FAM-MAT2A-hp1 RNA (Homo sapiens, UniProt Q86W50)
# T6 construct: METTL16 MTD (1–291) was subcloned to pOPINB plasmid; His tag followed by HRV 3C cleavage site (N, cleaved yes); made in house; host or cells: E. coli Rosetta (DE3)
# T6 sequence (Q86W50 1-291): T1 sequence (Q86W50 1-291)
# T7: METTL16 MTD–MAT2A-hp1 RNA interaction (Homo sapiens, UniProt Q86W50)
# T7 sequence (Q86W50 1-291): T1 sequence (Q86W50 1-291)
# T8: METTL16 MTD (methyltransferase domain) (Homo sapiens, UniProt Q86W50 1-291)
# T8 sequence: T1 sequence (Q86W50 1-291)
# B1: GGACU-RNA (unlabeled) (ssRNA)
# RNA: UUCUUCUGUGGACUGUG
# B2: pre-miR-17-hp (structured_RNA)
# RNA: GUGCAGGUAGUGAUAUGUGCAUCUACUGCAC
# B3: pre-miR-21-hp (structured_RNA)
# RNA: GGGUUGACUGUUGAAUCUCAUGGCAACCC
# What was measured:
# [1] = target: T1, methyltransferase activity of METTL16 MTD toward MAT2A-hp1; assay: In vitro methylation assay (MTase Glo); assay type: biochemical; details: RNA substrate MAT2A-hp1
# Description: Next, we evaluated the inhibition of the METTL16 methylation using the MTase Glo assay kit (Promega) measuring the methyltransferase activity based on the formation of the methylation product S-adenosyl homocysteine, which was converted to ADP by the MTase-Glo reagent to trigger a subsequent luciferase reaction (Figure 5E).
# The methyltransferase activity of METTL16 MTD was measured using an MTase Glo kit (Promega V7601) following the manufacturer’s instructions. The reaction was carried out in white 384-well plates (Corning #3824), with a total methyltransferase reaction volume of 8 μL, and the final concentrations of METTL16 MTD, MAT2A-hp1, and SAM were 1, 1, and 10 μM, respectively, and 1% of DMSO was used as a control. […] To use SAM at a different final concentration, the concentration of SAM was adjusted accordingly in a 2× substrate solution.
# [2] = target: T2, METTL16 MTD–U6 snRNA Δ interaction; assay: FP assay with Cy5-labeled U6 snRNA Δ; assay type: binding
# [3] = system: MDA-MB-231 cells; assay: Cell viability, MDA-MB-231; assay type: cell-based, human
# [4] = system: MDA-MB-231 cells; assay: Colony formation assay; assay type: cell-based, human; details: 7 days, three tested concentrations
# Description: MDA-MB-231 cells were collected and seeded with the density of 1000 cells per well into 24-well plates; after being cultured overnight, the medium was exchanged and treated with indicated compounds or DMSO (0.5%) as the control. The medium change and treatment were performed every 3 days. After 7 days, the cell culture medium was discarded, and cells were washed with PBS and fixed with 4% paraformaldehyde solution at room temperature for 15 min; the paraformaldehyde solution was removed, and cells were washed with PBS again to remove the paraformaldehyde. Then cells were stained with 0.1% (w/v) crystal violet. After staining for 15 min, the cells were washed with H2O to remove the extra dye and then photographed.
# [5] = target: T3, METTL16 MTD–GGACU-containing RNA interaction; assay: EMSA with GGACU-containing RNA; details: 5 nM RNA, 600 nM METTL16 MTD
# Description: METTL16 MTD protein (1–291) was incubated with the indicated compound or DMSO in a buffer containing 20 mM HEPES, pH 7.5, 50 mM NaCl, 0.05% v/v Tween 20, and 0.05 mg/mL BGG at room temperature for 30 min; subsequently, FAM-MAT2A-hp1 RNA probe was added and incubated at room temperature for 10 min, the final of protein and RNA are 50 and 5 nM respectively, and 1% DMSO was used as the control. […] The gel was detected and imaged by Chemi Doc MP (Bio-Rad). […] EMSA for testing compounds with GGAUC-motif containing RNA and METTL16 MTD interaction was performed using the method described above, expecting that the final of METTL16 MTD protein and FAM-labeled-GGACU RNA are 600 nM and 5 nM respectively. EMSA for RNA binding: indicated concentrations of fluorophore-labeled RNA were incubated with indicated concentrations of protein in EMSA buffer for 15 min at room temperature, then loaded to native PAGE gels and imaged with the method described above.
# [6] = target: T4, METTL16–MAT2A-hp1 mRNA interaction (METTL16 MTD 1–291, FAM-labeled MAT2A-hp1 RNA); assay: Fluorescence polarization (FP) assay, disruption of METTL16 binding to FAM-MAT2A-hp1 RNA
# Description: The binding of METTL16 to the FAM-labeled RNA probe formed a complex that led to a higher FP signal in comparison to that of the unbound RNA probe (Figure 2A). […] The Z-factor of 0.91 indicated the suitability of the assay condition (Figure S2D). […] In both FP assay and EMSA, a final concentration of 50 nM METTL16 and 5 nM FAM-MAT2A-hp was used. The METTL16 MTD (amino acids 1–291) was used in this study unless specifically indicated otherwise.
# The FP assay was performed using 384-well black plates (Corning #4514) in a total reaction volume of 20 μL, with the final concentration of protein and RNA being 50 and 5 nM respectively. Compounds were diluted in FP buffer and incubated with protein for 30 min at room temperature, then FAM-MAT2A-hp1 RNA probe was added and the fluorescence polarization was measured using a TECAN Spark plate reader, under the excitation wavelength of 485 nm and the emission wavelength of 535 nm with bandwidth of 20 nm. 1% DMSO was used as the control. The inhibition was calculated with the equation: inhibition = 100%(Control – X)/(Control – Blank); Control: DMSO with protein and FAM-RNA; Blank: DMSO with FAM-RNA; X: compound with protein and FAM-RNA. The IC50 value was further determined using GraphPad Prism 9. […] The polarization was measured under an excitation wavelength of 630 nm and an emission wavelength of 680 nm with a bandwidth of 20 nm.
# [7] = target: T5, METTL16 (1-291); assay: Covalent binding evaluation by protein LC–MS; details: 30 μM METTL16 (1-291), 100 μM compound, 30 or 150 min
# Description: To evaluate whether the aminothiazolones covalently bind to METTL16, we performed the LC–MS analysis after incubating the protein with aminothiazolones for 30 and 150 min, respectively. In the case of covalent binding, we would expect to observe the formation of covalent adducts, which would accrue over time. […] Besides the LC–MS analysis result, an irreversible inhibition counter screening indicated the reversible inhibitory activity of the aminothiazolones (Figure S8A).
# Figure S7. Covalent evaluation of METTL16 inhibitors via LC-MS. (A) Deconvoluted mass spectrum of 30 µM METTL16 (1-291) incubated with 1% DMSO for 30 min (left) and 150 min (right). (B), (C), (D) Deconvoluted […]
# (right). Expected Mass for METTL16 (1-291), 33455.7 Da. The observed small mass shift of ~50 Da appeared in both the DMSO control and compound-treated samples was probably formed by the solvent used in the LC-MS.
# (1 picture or pasted object on this page, not shown here)
# For computational docking analysis of aminothiazolones to the RNA binding site of METTL16 (PDB code: 6B91)2 Schrödinger® Maestro 12.3 was used. […]
# Chemical states were generated with the ligand preparation module and METTL16 conformation with the protein preparation module. […] The glide dock module was used and the results were evaluated according to interactions between small molecules and METTL16, small molecule orientations, docking scores and solvent exposure patterns. […]
# METTL16 MTD protein was diluted in SEC buffer (20mM pH 7.5, 200 mM NaCl, 0.5 mM TCEP,5% v/v glycerol) to a final concentration of 30 µM, and incubated with DMSO or 100 μM compound (final 1% DMSO) at room temperature. After incubation (30 min or 150 min), the samples were analyzed on an Agilent 1260 II Infinity system equipped with an electrospray ion source in positive mode, run through a Desalting cartridge (AdvanceBio Desalting-RP, 2.1 mm, 12.5mm, Agilent) with a gradient of 5-80% HPLC-grade acetonitrile (+ 0.1% TFA) in HPLC-grade water (+ 0.1% TFA) (flowrate: 0.4 mL/min, runtime: 6 min). […]
# [8] = target: T6, METTL16 (1-291)–FAM-MAT2A-hp1 RNA; assay: FP assay after incubating SAM with METTL16; assay type: binding; details: SAM incubated with METTL16 before the FP assay
# [9] = target: T7, METTL16 MTD–MAT2A-hp1 RNA interaction; assay: Electrophoretic mobility shift assay (EMSA) with FAM-MAT2A-hp1 RNA; details: 50 nM METTL16, 5 nM FAM-MAT2A-hp1
# Description: METTL16 MTD protein (1–291) was incubated with the indicated compound or DMSO in a buffer containing 20 mM HEPES, pH 7.5, 50 mM NaCl, 0.05% v/v Tween 20, and 0.05 mg/mL BGG at room temperature for 30 min; subsequently, FAM-MAT2A-hp1 RNA probe was added and incubated at room temperature for 10 min, the final of protein and RNA are 50 and 5 nM respectively, and 1% DMSO was used as the control. […] The gel was detected and imaged by Chemi Doc MP (Bio-Rad).
# [10] = target: T8, METTL16 MTD (methyltransferase domain); assay: competition FP; vs FAM-MAT2A-hp1; 20 mM HEPES pH 7.5, 50 mM NaCl, 0.05% Tween 20, 0.05 mg/mL BGG, room temperature; EMSA 6.6% native PAGE 0.5x TBE at 4 C; details: protein: recombinant; tags: N-terminal His tag removed by HRV 3C (His-tagged form also purified)
# [11] = target: T8, METTL16 MTD (methyltransferase domain); assay: competition FP; vs FAM-MAT2A-hp1; more potent than GGACU-RNA and pre-miR-17-hp bp; 20 mM HEPES pH 7.5, 50 mM NaCl, 0.05% Tween 20, 0.05 mg/mL BGG, room temperature; EMSA 6.6% native PAGE 0.5x TBE at 4 C; details: protein: recombinant, tags: N-terminal His tag removed by HRV 3C (His-tagged form also purified)
Molecule,"inhibition of the methyltransferase activity of METTL16 MTD, in words [1]",IC50 [2] [nM],"inhibition on colony formation, in words [4]","inhibition of METTL16–GGACU RNA binding in EMSA, in words [5]",IC50 [6] [nM],other results
O=C1N=C(NS(=O)(=O)c2ccc(C(=O)O)cc2)SC1=C1C(=O)Nc2ccc(Cl)cc21 [Compound 27],dose-dependently inhibited; also recorded: potent inhibitory activity,6600,mild inhibitory activity against colony formation,dose-dependently inhibited,2700,"effect on cell viability, in words [3]: mild antiviability effect"
CN1C(=O)C(=C2SC(NS(=O)(=O)c3ccc(C(=O)O)cc3)=NC2=O)c2cc([N+](=O)[O-])ccc21 [Compound 46],dose-dependently inhibited; also recorded: potent inhibitory activity,2800,did not show obvious inhibition on colony formation,dose-dependently inhibited,2000,"covalent adduct formation with METTL16 (LC–MS) [7]: no such covalent adduct with a mass shift was observed; IC50 under different SAM concentrations (FP assay), in words [8]: remained"
COc1ccc(S(=O)(=O)NC2=NC(=O)C(=C3C(=O)Nc4ccc(Cl)cc43)S2)cc1 [Compound 1],,,,,16300,"disruption of METTL16–MAT2A-hp1 RNA binding in EMSA, in words [9]: dose-dependent inhibition"
B1,,,,,,IC50 [10]: 814 nM
B2,,,,,,binding result ([11]; hairpin with two bulges): binds
B3,,,,,,binding result ([11]; hairpin): binds
